The values that follow are results of earlier work, collected in patent publication US10934405B2, “Synthetic polymer film whose surface has microbicidal activity, plastic product which includes synthetic polymer film, sterilization method with use of surface of synthetic polymer film, photocurable resin composition, and manufacturing method of synthetic polymer film” (Sharp Kabushiki Kaisha, priority 2018, dated 2021).

The conditions of this data set: for Water Solubility: YES/NO, TABLE 1A and 1B.

As to `C=COCCOCCOC(=O)C=C` [VEEA, 2-(2-vinyloxyethoxy)ethyl acrylate], the “Water Solubility” value was “YES”. Turning to `Nc1nc2ncc(CNc3ccc(C(=O)N[C@@H](CCC(=O)O)C(=O)O)cc3)nc2c(=O)[nH]1` [folic acid], under “TABLE 6A and 6B”, the “Water Solubility (symbol)” value is reported as “◯”.

Regarding “polyethylene glycol (200) diacrylate [Example M282]”, the “Water Solubility” value is listed as “YES”. For the molecule “polyethylene glycol (400) diacrylate [Example M280]”, the “Water Solubility” value is “YES”.
